Where a name gives a salt, the structure may show the parent alone.
Legend:
Format in all cases: physicochemical
[1] = Stability during long term storage, assessed by HPLC; conditions: double LDPE liners, desiccant pouch, heat-sealed foil bag, HDPE keg
Description: Purity analysis was performed on an Agilent HP1100 series system equipped with a diode array detector and using ChemStation software vB.02.01-SR1 using the method detailed below (Table 1).
(§1) Crystalline (3S)-Tetrahydrofuran-3-yl (4S)-4-isopropyl-1,4,6,7-tetrahydro-5H-imidazo[4,5-c]pyridine-5-carboxylate mesylate was also assessed for stability and hygroscopicity when dispensed in 3 g aliquots in double LDPE liners, sealed with cable tie and placed, with a desiccant pouch into a foil bag, which was subsequently heat-sealed. The foil bag was then placed into an HDPE keg fitted with an HDPE lid. These conditions mirror typical GMP level storage conditions. Stability was assessed by HPLC and hygroscopicity was assessed by Karl Fisher (KF) titration.

[2] = Hygroscopicity on storage at controlled temperature/relative humidity (Table 2)
Text: Crystalline mesylate salt was isolated and characterised using some or all of XRPD, ^1H NMR, DSC, TGA, GVS, IC, PLM, HSM, HPLC and KF (see Table 2).

[3] = Hygroscopicity during long term storage, assessed by Karl Fischer titration; conditions: double LDPE liners, desiccant pouch, heat-sealed foil bag, HDPE keg
Description: The water content of each sample was measured on a Mettler Toledo DL39 Coulometer using Hydranal Coulomat AG reagent and an argon purge. Weighed solid samples were introduced into the vessel on a platinum TGA pan which was connected to a subaseal to avoid water ingress. Approx 10 mg of sample was used per titration and duplicate determinations were made.
as §1

[4] = after 6 months at 40° C./75% RH

Degradation (HPLC) [1, 4] [%]	Degradation (HPLC) ([1]; over 3 years at 25° C./60% RH) [%]	Hygroscopicity (time after which the sample deliquesced) ([2]; 40° C./75% RH) [days]	Stability of the crystalline salt on storage (reduced hygroscopicity) ([2]; temperature of 40° C., relative humidity of 75%)	Water uptake (KF) [3, 4] [%]	Water uptake (KF) ([3]; over 3 years at 25° C./60% RH)	Hygroscopicity (time in which the sample deliquesced) ([2]; 25° C./60% RH) [° C./60% RH in <24 h]	SMILES
0.1	0.1	3	up to three days	0.1	no water uptake	–	CC(C)[C@H]1c2[nH]cnc2CCN1C(=O)O[C@H]1CCOC1 [Crystalline mesylate salt, (3S)-Tetrahydrofuran-3-yl (4S)-4-isopropyl-1,4,6,7-tetrahydro-5H-imidazo[4,5-c]pyridine-5-carboxylate, Methananesulfonic Acid Salt]
–	–	–	–	–	–	25	CC(C)[C@H]1c2[nH]cnc2CCN1C(=O)O[C@H]1CCOC1 [Free base, (3S)-Tetrahydrofuran-3-yl (4S)-4-isopropyl-1,4,6,7-tetrahydro-5H-imidazo[4,5-c]pyridine-5-carboxylate]
